Measurements from patent US11739098B2 (BRISTOL-MYERS SQUIBB COMPANY, priority 2017, dated 2023).

Legend:
Assay type in all cases: cell-based
human TLR8 = molecular target: T1, human TLR8 (Homo sapiens, UniProt Q9NR97); assay: TLR8 inhibition reporter assay (HEK-Blue cells, SEAP reporter, R848 stimulation); conditions: HEK-Blue cells overexpressing human TLR8, SEAP reporter, R848 15.9 μM
T1 construct: host or cells: HEK-Blue cells (HEK293-derived reporter line)
T1 sequence (Q9NR97 27-1041): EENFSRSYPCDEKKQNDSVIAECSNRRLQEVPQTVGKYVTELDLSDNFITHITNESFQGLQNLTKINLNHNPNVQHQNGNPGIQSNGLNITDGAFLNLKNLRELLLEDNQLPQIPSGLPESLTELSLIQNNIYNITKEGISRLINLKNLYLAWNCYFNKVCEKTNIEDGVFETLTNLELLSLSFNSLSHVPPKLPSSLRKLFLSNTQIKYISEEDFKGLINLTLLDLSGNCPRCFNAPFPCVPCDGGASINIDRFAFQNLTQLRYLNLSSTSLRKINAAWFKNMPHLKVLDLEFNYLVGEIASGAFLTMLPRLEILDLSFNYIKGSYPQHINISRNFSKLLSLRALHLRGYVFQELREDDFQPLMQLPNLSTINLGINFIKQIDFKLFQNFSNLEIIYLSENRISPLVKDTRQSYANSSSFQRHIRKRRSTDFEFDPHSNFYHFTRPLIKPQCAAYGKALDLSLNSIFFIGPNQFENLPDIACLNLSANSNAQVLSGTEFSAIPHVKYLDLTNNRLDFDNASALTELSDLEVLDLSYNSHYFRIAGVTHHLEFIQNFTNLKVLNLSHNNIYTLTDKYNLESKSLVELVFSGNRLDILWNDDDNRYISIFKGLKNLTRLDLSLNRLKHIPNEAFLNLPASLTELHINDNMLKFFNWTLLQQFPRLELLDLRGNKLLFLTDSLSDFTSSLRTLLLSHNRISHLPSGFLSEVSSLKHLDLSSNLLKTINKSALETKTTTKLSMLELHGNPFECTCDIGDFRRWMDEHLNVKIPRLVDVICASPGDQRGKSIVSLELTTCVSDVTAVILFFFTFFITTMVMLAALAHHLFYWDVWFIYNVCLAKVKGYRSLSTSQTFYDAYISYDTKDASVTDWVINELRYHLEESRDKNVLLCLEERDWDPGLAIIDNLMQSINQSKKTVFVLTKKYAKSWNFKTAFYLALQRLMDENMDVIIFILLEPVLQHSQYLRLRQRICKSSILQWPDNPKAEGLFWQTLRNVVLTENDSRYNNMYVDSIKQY
Summary of the method: (§1)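 Percent inhibition of agonist-induced SEAP secretion in HEK-Blue cells after 22 h at 37 °C. Stimuli: 7.5 μM gardiquimod, 15.9 μM R848, 5 nM ODN2006 for TLR7, TLR8 and TLR9, added after 30 min compound exposure over a 0.05 nM–50 μM range.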

human TLR7 = molecular target: T2, human TLR7 (Homo sapiens, UniProt Q9NYK1); assay: TLR7 inhibition reporter assay (HEK-Blue cells, SEAP reporter, gardiquimod stimulation); conditions: HEK-Blue cells overexpressing human TLR7, SEAP reporter, gardiquimod 7.5 μM
T2 construct: host or cells: HEK-Blue cells (HEK293-derived reporter line)
T2 sequence (Q9NYK1 27-1049): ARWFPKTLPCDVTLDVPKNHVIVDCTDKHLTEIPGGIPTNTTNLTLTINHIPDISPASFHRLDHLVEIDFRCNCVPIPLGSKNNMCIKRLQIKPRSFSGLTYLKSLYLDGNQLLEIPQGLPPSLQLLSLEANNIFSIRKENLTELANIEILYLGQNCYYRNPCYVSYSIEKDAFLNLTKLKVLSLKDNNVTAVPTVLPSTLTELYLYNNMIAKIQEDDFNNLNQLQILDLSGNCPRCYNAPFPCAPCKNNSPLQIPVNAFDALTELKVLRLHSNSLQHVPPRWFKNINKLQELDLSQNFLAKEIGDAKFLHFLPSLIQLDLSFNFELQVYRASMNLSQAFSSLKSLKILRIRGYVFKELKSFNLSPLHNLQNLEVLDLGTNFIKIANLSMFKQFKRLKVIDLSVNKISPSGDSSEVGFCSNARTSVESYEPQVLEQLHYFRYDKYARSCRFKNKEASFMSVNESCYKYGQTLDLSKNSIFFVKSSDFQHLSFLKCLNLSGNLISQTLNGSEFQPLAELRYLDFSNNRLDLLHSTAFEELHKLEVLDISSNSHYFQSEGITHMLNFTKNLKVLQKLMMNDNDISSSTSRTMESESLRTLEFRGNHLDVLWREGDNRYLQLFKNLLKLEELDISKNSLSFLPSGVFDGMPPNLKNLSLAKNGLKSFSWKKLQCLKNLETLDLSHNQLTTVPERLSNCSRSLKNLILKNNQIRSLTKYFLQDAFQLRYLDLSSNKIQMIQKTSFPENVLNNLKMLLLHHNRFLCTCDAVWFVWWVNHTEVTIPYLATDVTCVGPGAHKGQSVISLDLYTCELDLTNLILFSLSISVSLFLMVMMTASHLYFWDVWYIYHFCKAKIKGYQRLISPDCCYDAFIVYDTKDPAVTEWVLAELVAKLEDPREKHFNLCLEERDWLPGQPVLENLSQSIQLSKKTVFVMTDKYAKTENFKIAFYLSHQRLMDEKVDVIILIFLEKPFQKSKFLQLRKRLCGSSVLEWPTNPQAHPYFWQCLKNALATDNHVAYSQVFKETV
Summary of the method: as §1

human TLR9 = molecular target: T3, human TLR9 (Homo sapiens, UniProt Q9NR96); assay: TLR9 inhibition reporter assay (HEK-Blue cells, SEAP reporter, ODN2006 stimulation); conditions: HEK-Blue cells overexpressing human TLR9, SEAP reporter, ODN2006 5 nM
T3 construct: host or cells: HEK-Blue cells (HEK293-derived reporter line)
T3 sequence (Q9NR96 26-1032): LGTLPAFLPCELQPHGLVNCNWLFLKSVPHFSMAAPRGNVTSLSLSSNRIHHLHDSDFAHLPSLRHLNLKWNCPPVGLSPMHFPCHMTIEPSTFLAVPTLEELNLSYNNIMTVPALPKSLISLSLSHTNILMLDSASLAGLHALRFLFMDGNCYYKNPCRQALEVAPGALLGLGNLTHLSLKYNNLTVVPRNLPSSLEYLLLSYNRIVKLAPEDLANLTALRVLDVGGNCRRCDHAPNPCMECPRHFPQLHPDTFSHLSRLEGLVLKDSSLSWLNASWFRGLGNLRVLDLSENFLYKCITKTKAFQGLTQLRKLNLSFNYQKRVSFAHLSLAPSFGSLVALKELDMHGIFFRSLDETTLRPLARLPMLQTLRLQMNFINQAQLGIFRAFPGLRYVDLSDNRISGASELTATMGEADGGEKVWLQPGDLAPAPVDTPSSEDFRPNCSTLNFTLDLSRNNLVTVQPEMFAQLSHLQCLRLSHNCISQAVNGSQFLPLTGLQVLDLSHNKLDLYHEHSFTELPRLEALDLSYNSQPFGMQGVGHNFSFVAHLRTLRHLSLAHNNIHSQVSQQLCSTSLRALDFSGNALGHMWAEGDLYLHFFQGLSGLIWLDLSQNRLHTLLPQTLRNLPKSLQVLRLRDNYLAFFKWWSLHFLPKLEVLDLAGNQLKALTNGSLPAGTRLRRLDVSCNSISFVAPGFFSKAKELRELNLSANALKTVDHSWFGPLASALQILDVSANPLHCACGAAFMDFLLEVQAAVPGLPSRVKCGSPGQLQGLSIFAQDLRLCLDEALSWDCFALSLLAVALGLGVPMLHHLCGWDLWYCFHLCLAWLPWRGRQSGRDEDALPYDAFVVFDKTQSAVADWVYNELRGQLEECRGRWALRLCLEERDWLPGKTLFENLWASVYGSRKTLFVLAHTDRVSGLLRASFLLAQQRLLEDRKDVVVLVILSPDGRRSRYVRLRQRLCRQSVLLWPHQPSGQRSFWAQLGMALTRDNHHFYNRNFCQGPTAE
Summary of the method: as §1

Row | IC50 (human TLR8) [µM] | IC50 (human TLR7) [µM] | IC50 (human TLR9) [µM] | SMILES
1 | 0.1 to 1 | < 0.1 | 1 to 50 | CC(C)c1c(-c2cnc3ncnn3c2)[nH]c2ccc(C3CCN(CC(=O)N(C)C)CC3)cc12 [Example 422, 2-(4-(2-([1,2,4]triazolo[1,5-a]pyrimidin-6-yl)-3-isopropyl-1H-indol-5-yl)piperidin-1-yl)-N,N-dimethylacetamide]
2 | < 0.1 | < 0.1 | 1 to 50 | CNC(=O)CN1CCC(c2ccc3[nH]c(-c4cc(C)c5ncsc5n4)c(C(C)C)c3c2)CC1 [Example 406, 2-(4-(3-isopropyl-2-(7-methylthiazolo[5,4-b]pyridin-5-yl)-1H-indol-5-yl)piperidin-1-yl)-N-methylacetamide]
3 | < 0.1 | < 0.1 | 1 to 50 | Cc1cc(-c2[nH]c3ccc(C4CCNCC4)cc3c2C(C)C)c2ccccc2n1 [Example 104, 4-(3-isopropyl-5-(piperidin-4-yl)-1H-indol-2-yl)-2-methylquinoline]
4 | < 0.1 | < 0.1 | 1 to 50 | Cc1cc(-c2[nH]c3ccc(C4CCN(CCS(C)(=O)=O)CC4)cc3c2C(C)C)cn2nnnc12 [Example 789, 6-(3-isopropyl-5-(1-(2-(methylsulfonyl)ethyl)piperidin-4-yl)-1H-indol-2-yl)-8-methyltetrazolo[1,5-a]pyridine]
5 | < 0.1 | < 0.1 | 1 to 50 | Cc1cc(-c2[nH]c3ccc(C4CCN(C(=O)CN(C)C)CC4)cc3c2C(C)C)cc2cnnn12 [Example 488, 2-(dimethylamino)-1-(4-(3-isopropyl-2-(7-methyl-[1,2,3]triazolo[1,5-a]pyridin-5-yl)-1H-indol-5-yl)piperidin-1-yl)ethan-1-one]
6 | < 0.1 | < 0.1 | 1 to 50 | COCCN1CCC(c2ccc3[nH]c(-c4ccc(C#N)c5ncccc45)c(C(C)C)c3c2)CC1 [Example 778, 5-(3-isopropyl-5-(1-(2-methoxyethyl)piperidin-4-yl)-1H-indol-2-yl)quinoline-8-carbonitrile]
7 | 0.1 to 1 | 0.1 to 1 | 1 to 50 | Cc1cc(-c2[nH]c3ccc(C4CCN(CC(C)(C)O)CC4)cc3c2C(C)C)cc2cnn(C)c12 [Example 762, 1-(4-(2-(1,7-dimethyl-1H-indazol-5-yl)-3-isopropyl-1H-indol-5-yl)piperidin-1-yl)-2-methylpropan-2-ol]
8 | < 0.1 | < 0.1 | 0.1 to 1 | Cc1cc(-c2[nH]c3ccc(C4CCN(CC#N)CC4)cc3c2C(C)C)cn2ccnc12 [Example 951, 2-(4-(3-isopropyl-2-(8-methylimidazo[1,2-a]pyridin-6-yl)-1H-indol-5-yl)piperidin-1-yl)acetonitrile]
